# Legend:
# L3.6pl tumors = test: In vivo / ex vivo imaging (Pearl Imager) of mice with L3.6pl tumors
# Description: In vivo imaging of the mice with the L3.6pl tumors was performed using the Pearl™ Imager (LI-COR Biosciences, Bad Homburg, Germany). The system uses two lasers (685 and 785 nm) for excitation and a charge-coupled device detector for signal detection. The laser excitation enables a deep tissue penetration. With the near-infrared detection a high sensitivity due to the reduced tissue auto-fluorescence is achieved. In order to standardize the images we made use of the Pearl Cam Software. The animals were fed with chlorophyll-reduced food to reduce the fluorescence background one week before imaging (Regime 210, safe-diets, Augy, France). Prior to imaging the mice were anesthetized with 2.0% isoflurane. Animals were placed on the heated plate of the imager and continuous delivery of isoflurane was achieved through a nose cone in the imaging drawer. Images were captured at white light, 700 and 800 nm. Animals were imaged prior to i.v. peptide injection and 24 h after injection with either DY681-labeled human v6 peptide or DY681-labeled rat v6 peptide as control. Immediately after each imaging session animals were killed, tumor, liver and spleen isolated and scanned ex vivo at white light, 700 and 800 nm.
# L3.6pl cells = test: Staining of L3.6pl cells with DY681-labeled peptides; format: cell-based, human; details: DY681 labeled peptide
# Description: ASs6 or L3.6pl cells were seeded at 5,000 cells/well of a Lab-TekR Chamber Slide™ (Nunc, Napierville, Ill., USA). On the following day the cells were washed with cold PBS and fixed with 4% Formalin for 30 min at RT. Unspecific binding was blocked with 1% BSA in PBS for 1 hour at RT. The cells were incubated for 1 hour with the DY681-labeled peptides. After three washing steps with PBS the cover slips were mounted with Fluorescence Mounting Medium (Dako, Glostrup, Denmark) and the immunofluorescence was measured by a laser scanning confocal microscope Leica TCS2 SP2 (Exton, Pa., USA) and processed using Leica confocal software. A 20× objective was used for imaging.
# Met and ERK = test: HGF induced activation of Met and ERK in L3.6pl cells (Western blot); format: cell-based, human; details: L3.6pl cells induced with HGF (FIG. 5A right)
# Description: Serum-starved cells (24 hours) were induced with the growth factor HGF (10 ng/mL) at 37° C. for 5 minutes. Where indicated, the cells were treated with peptides (100 ng/ml) prior to induction at 37° C. for 10 minutes (100 ng/mL CD44v6 peptide or control peptide). Following the induction with HGF, cells were washed with ice-cold phosphate-buffered saline (PBS). To detect activated Met and Erk, cells were lysed in sodium dodecyl sulfate (SDS)-sample buffer containing 100 mM dithiothreitol (DTT), boiled and subjected to western blot analysis using antibodies against phospho-Met and ERK. The loading controls were performed on the same blot after stripping (62.5 mM Tris, pH 6.8, 2% SDS, 0.8% DTT) by probing with the Met respectively ERK antibody. Blots were stained using the enhanced chemiluminescence system (Thermo Fisher Scientific, Schwerte, Germany). Bands in western blot analysis were quantified with the program Image J (National Institutes of Health).
# Met = details: N to A and E to A mutated pentapeptide; cited from earlier work
substance,measurement,setting,value
"WFGNRWHEGYR [DY681 human v6 peptide, human v6 11mer labeled with DY681]",fluorescence / accumulation in the orthotopic L3.6pl tumor in vivo,"L3.6pl tumors; 20 μg i.v., 24 h after injection",accumulated specifically in the tumor
same,"ex vivo binding to primary tumors, livers",L3.6pl tumors; organs excised 24 h after injection,binding not only to primary tumors but also to areas of the liver
same,binding to L3.6pl cells in cell culture,L3.6pl cells,bound to these cells in cell culture
same,inhibition of Met activation by DY681 labeled peptide,Met and ERK,inhibited Met activation in L3.6pl cells
A-R-W-H-A (ARWHA) [pentapeptide with N and E mutated to A],Met activation,Met,capable of abrogating Met activation

# — US9593146B2, “CD44v6-derived peptides for treating metastasizing cancer” (AMCURE GMBH, priority 2012, dated 2017)
